Assay results: US5519115A, “Reverse antimicrobial peptides” (priority 1993, dated 1996)
Where two headings read alike, the source gives them in different places. Ends that are not written are not given here.

Columns and labels:
[1] = test system: isolated chloroplasts; assay: Oxygen evolution bioassay, phytotoxicity (isolated chloroplasts); assay type: cell-based, Spinach (Spinacia oleracea L. var. Melody); details: for inhibition of oxygen evolution: 8 uM
Protocol: The following procedure for the preparation of chloroplasts to use in an oxygen electrode is similar to that of Gupta et al., "Development and Use of Chlorotetracycline Fluorescence as a Measurement Assay of Chloroplast Envelope-Bound Mg^2+, "Plant Physiol. 89, (1989) 753-761. Spinach (Spinacia oleracea L. var. `Melody`) was grown in 1:1 peat/vermiculite potting mix in a growth chamber with a 10 hour light period. The chamber temperature was maintained at 21° C. (day) and 16° C. (night) during the growth period. All plants were used for chloroplast isolation after 6-8 weeks of growth.
In order to obtain an enriched chloroplast fraction, about 12 g of deribbed spinach leaves were thoroughly washed and surface dried. The leaves were then cut into small pieces, each about 1/2 inch square, and were placed in a small blender jar containing 50 mL of chilled homogenization medium (0.33M sorbitol, 50 mM Hepes-NaOH, pH 6.8, 2mM Na2 EDTA, 1 mM MnCl2, 1 mM MgCl2). The tissue was blended twice for three second intervals on high speed in a blender. The resulting homogenate was filtered through four layers of cheesecloth and two layers of miracloth (Behring Diagnostics, La Jolla, Calif.) into two chilled 30 mL glass centrifuge tubes. The filtered solution was centrifuged for 1.0 minute at 750 g (2,200 RPM) in a JS 13.1 swinging bucket rotor in a Beckman J2-21M centrifuge (Beckman Instruments, Inc., Somerset, N.J.). The supernatant was then decanted and the pellet was gently resuspended by swirling at 0° C. About 15 mL of homogenization medium was added to each tube of chloroplasts before the chloroplasts were layered onto a 40% Percoll gradient (6 mL Percoll, 9 mL homogenization medium, and 0.03 g bovine serum albumin) in a 30 mL glass centrifuge tube. These tubes were centrifuged for 4.0 minutes at 2500 g (4000 RPM) in a JS 13.1 swinging bucket rotor in a Beckman J2-21M centrifuge. The supernatant was removed and the resulting pellet was resuspended in a small amount of homogenization medium (about 500 microliters).
Plastid concentration was generally expressed on a chlorophyll basis. Chlorophyll was determined by the method of Arnon "Copper Enzymes in Isolated Chloroplasts, Polyphenol Oxidase in Beta Vulgaris," Plant Physiol. 24, (1949) 1-15. About 50 microliters of chloroplast stock suspension was added to 10 mL of 80% acetone and this solution was incubated 5.0 minutes in the dark and then centrifuged for 5.0 minutes at 500 g (1630 RPM) in a Beckman GP centrifuge. The absorbance of the acetone-chloroplast solution was monitored at 645 nm, at 663 nm and at 730 nm. The chlorophyll concentration was then calculated as 10× [(absorbance at 645 nm×20.2)+(absorbance at 663 nm×8.02)--background at 730 nm]. This gave the amount of chlorophyll in micrograms for the original 50 microliters of chloroplasts. The concentration of chloroplasts was then adjusted with homogenization medium so that 50 microliters of suspension contained 26 micrograms of chlorophyll. These chloroplasts were only active for 11/2 to 2 hours and were therefore used immediately.
An oxygen electrode (Hansatech Instruments Ltd., Kings Lynn, Norfolk, England) was used to measure oxygen evolution from isolated chloroplasts. For a detailed discussion of the method see, D. Walker, "The Use of the Oxygen Electrode and Fluorescence Probes in Simple Measurements of Photosynthesis," supra. A saturated KCl solution was placed in the electrode well and a one-inch square of rolling paper or lens paper was placed in to the electrode well so that it soaked up KCl and formed an ionic bridge. A one-inch square of teflon membrane was then prepared, being careful not to touch its surface, and was placed over the soaked paper. Using the membrane applicator, an O ring was placed over the head of the electrode, thereby securing paper and membrane across the electrode. The CB-1D control box was turned on and the system was allowed to warm up approximately one hour before calibration. […]

[2] = test system: maize BMS suspension cells; assay: Whole cell phytotoxicity screening (oxygen consumption); assay type: cell-based
Protocol: Oxygen consumed by maize BMS suspension cells were determined as an indication of the relative phytotoxicity of antimicrobial peptides. Black Mexican Sweet (BMS) cell suspension cultures were maintained by transferring 25 mls of cell culture to 25 mls of fresh MSA2D media (4.4 g bottle of Murashige and Skoog basal salt mixture Sigma catalog No. M5524, 100 mg myoinositol, 150 mg L-asparagine, 30 g sucrose, 20 mls of 0.1 mg/ml 2.4-dichlorophenoxy acetic acid stock and 1 ml of vitamin stock consisting of 25 mg/100 ml calcium pantothenate, 50 mg/100 ml pyridoxine, 50 mg/100 ml nicotinic acid, 50 mg/100 ml thiamine, 200 mg/100 ml glycine all added to 1 liter sterile distilled water followed by autoclaving 25 minutes at 121° C.) in a capped sterile 250 ml Erlenmeyer flask 3 days after culture initiation. Four days later 12.5 mls of the cell culture was transferred to 35.5 mls of fresh MSA2D media. Cultures were continuously maintained by alternating 3 and 4 day transfer regimes. The cultures were shaken in low light at 125 RPM at room temperature. For oxygen consumption experiments cells were used one day after transferring to fresh media. Cells were poured into a sterile 50 ml centrifuge tube and allowed to settle by gravity. Spent media was drawn off and 7.8 mls of fresh MSA2D media was added per gram of settled cells. The cell stock solution was placed on a shaker for continued aeration and was used in all assays conducted on that day.
An oxygen electrode (Hansatech Limited, Kings' Lynn, Norfolk, England) was inspected to insure that no corrosion was present. A saturated KCl solution was then placed in the clean electrode well. A 1 inch square of rolling paper or lens paper was cut and placed over the well so that the edges of the paper soaked up KCl and formed an ionic bridge. A 1 inch square of teflon membrane was cut, being careful not to touch the surface, and placed over the soaked rolling paper. A membrane applicator was used to press an O-ring over the head of the electrode thereby securing paper and membrane across the electrode. The CB-1D control box (Hansatech Limited) was turned on and allowed to warm up approximately one hour before calibration. The CB-1D control box was set at 1X output. A chart recorder was set at 0.05 V input with a chart speed of 3 cm/min. A circulating water bath set at 20° C. was hooked up to the electrode chamber. The entire system was calibrated using air-saturated water obtained by vigorously shaking a wash bottle of distilled water. Using the gain switch, the output was set so that the pen on the chart recorder was at the maximum chart height (900=top). The oxygen concentration of air-saturated water was assumed to be 276 nmole/mL at 20° C. All air was removed from the water in the cuvette by adding 2-3 mg of sodium dithionite. The pen on the chart recorder responded by moving to the bottom of the graph. If the slope of the line was unstable, the membrane and rolling paper were removed and the set-up steps were repeated.
For a 1 mL assay, 888 uL water and 62.5 uL BMS stock cell suspension were added to the oxygen electrode cuvette. The final concentration of cells used in the assay was approximately 8 mg/mL. The rate of oxygen consumed by the cells was monitored on the chart recorder for 3 minutes. Fifty microliters of peptide was then added to the cuvette using a Hamilton syringe. (Peptide stocks were adjusted to deliver the desired concentration in a 50 uL volume). Oxygen consumption was monitored for 5 minutes after peptide addition. The time period for the complete test was 8 minutes.
The rate of suppression of oxygen consumption after the addition of a peptide was determined by comparing the slope of the line before the addition of the peptide to the slope of the line at a set time point after addition of the peptide. The rate of oxygen consumption after addition of the peptide was divided by the initial control rate of oxygen consumption and then multiplied by 100. […]

[3] = Phytotoxicity (method not given)
[4] = test system: plant protease
[5] = test system: extracellular plant proteases; assay: in vitro; details: pH 7.4
Description: In an attempt to determine the sensitivity of peptides to extracellular plant proteases, and to determine the site or sites of processing by these proteases, a system was designed to obtain extracellular fluid from leaves of maize, tobacco, or potato and to use these to test the stability of various peptides.
Extracellular fluid (ECF) was obtained by cutting interveinal pieces from tobacco leaf after they were rinsed in deionized water. The segments were submerged in water in a vacuum desicator and vacuum was applied for 5 to 10 min. The vacuum was released slowly, the leaves were blotted dry and 4 to 5 pieces were rolled and placed in a 50 mL disposable syringe barrel cut down so as to be able to fit in a swinging bucket centrigue rotor. The syringe barrel was placed in a 50 mL screw cap conical centrifuge tube and centrifuged in a swinging bucket rotor at 600×g for 30 min. The liquid was recovered and centrifuged in a microfuge for 10 min. The supernatant was stored at -80° C. and used in subsequent experiments.
To test the stability of a peptide to extracellular plant proteases, 10 ug of the peptide (1 mg/mL) was incubated with 10% extracellular fluid in 50 mM Tris HCL buffer, pH 7.4. The peptides tested were prepared or obtained as described in Examples 6, 13, and 14. After incubation at 37° C. for 0, 15, 30, 45 and 60 min the proteases were inactivated by the addition of trifluoroacetic acid (TFA) to 1% final concentration (v/v).
Peptides were analyzed by reverse phase chromatography on a 2.1×30 mm POROS R/H column (PerSpective Biosystems, Cambridge, Mass.) using a 5 to 35% acetonitrile gradient in 0.1% TFA on a Hewlett-Packard HP1090 high pressure liquid chromatograph (Hewlett Packard, Avondale, Pa.) at 3.5 mL/min.

[6] = test system: plant protease; details: cited from earlier work
[7] = 10% extracellular fluid from tobacco leaf

GIGKFLHSAKKFGKAFVGEIMNSGGGGGGIGKFLHSAKKFGKAFVGEIMNS [Peptide No. 6, Mag 2 dimer (bridged)]
inhibition of oxygen evolution [1]: 100%

SWLSKTAKKLENSAKKRISEGIAIAIQGGPR [Peptide No. 4, P1]
phytotoxic effect on whole cells, oxygen consumption (in words) ([2]; Table V): greater overall phytotoxic effect on whole cells | phytotoxicity (in words) [3]: very low | susceptibility to proteolysis (in words) [4]: very low

MGIGKFLREAGKFGKAFVGEIMKGIGKFLREAGKFGKAFVGEIMKP [Peptide No. 15, Head-to-tail peptide Nos. 11 and 12***]
inhibition of oxygen evolution [1]: 100%

GIGKFLHSAKKFGKAFVGEIMNS [Peptide No. 1, Magainin 2]
phytotoxic effect on whole cells, oxygen consumption (in words) ([2]; Table V): much higher level of inhibition of oxygen consumption | remaining at 0.25 h [5, 7]: 23% | remaining at 0.5 h [5, 7]: 18% | remaining at 0.75 h [5, 7]: 5.3% | remaining at 1 h [5, 7]: 0.5% | Percentage of Area Under the Parent Peak ([5]; Time 0 min, 10% extracellular fluid, 37° C.): 100 Percentage

SNMIEGVFAKGFKKASHLFKGIG [Peptide No. 8, Reverse Magainin 2]
phytotoxicity effect compared to native Magainin 2 (in words) [1]: extremely low Phytotoxicity effect | Percent Inhibition of Oxygen Consumption Caused by Addition of 4 μM Peptide [2]: 16 +/- 12%

GIGKFLHSAGKFGKAFVGEIMKS [Peptide No. 2, Magainin 1]
Percent Inhibition of Oxygen Consumption Caused by Addition of 4 μM Peptide [2]: 52 +/- 6% | phytotoxic effect on whole cells, oxygen consumption (in words) [2]: greater overall phytotoxic effect on whole cells

CGIGKFLREAGKFGKAFVGEIMKP [Peptide No. 13, Cys [Arg 7, Glu 8, Pro 23] Mag 1]
inhibition of oxygen evolution [1]: 100%

KWKLFKKIEKVGQNIRDGIIKAGPAVAVVGQATQIAK-NH2 [Peptide No. 3, Cecropin A-NH2, reference compound]
inhibition of oxygen evolution [1]: 100%

GIGKFLHEAKKFGKAFVGEIMNS [Peptide No. 10, [Glu 8] Mag 2]
decrease in the susceptibility to proteolytic degradation [6]: ≥ 50%

GIGKFLHSAKKFGKAFVGEIMNSGIGKFLHSAKKFGKAFVGEIMNS [Peptide No. 5, (Mag 2)-(Mag 2)]
inhibition of oxygen evolution [1]: 100% | Percent Inhibition of Oxygen Consumption Caused by Addition of 4 μM Peptide [2]: 72 +/- 13% | phytotoxic effect on whole cells, oxygen consumption (in words) [2]: no significantly different effect on phytotoxicity
